Experimental data as given in patent publication US9758477B2, “Sulfamoylbenzamide derivatives as antiviral agents against HBV infection” (priority 2011, dated 2017).

Tests used:
Assay type in all cases: cell-based, Hepatitis B virus (HBV)
HBV capsids = experiment: Viral capsids by particle gel assay; settings: AML12HBV10 cells, 2 days, FIG. 3 panel B; Bay41-4109 5 μM, AT-61 25 μM
Protocol: (§1) To obtain mechanistic insight of the compounds of present invention against HBV, AML12HBV10 cells cultured in the 12-well plates were treated with a series of concentrations of DVR-1, DVR-56 or DVR-23 for two days in the absence of tetracycline (Guo et al., 2007). As positive controls, the cells were also treated with Bay41-4109 (5 μM) or AT-61 (25 μM), the known HBV nucleocapsid assembly effectors that either bind to HBV core protein dimmer to misdirect its interaction and prevent capsid formation (Bay41-4109) (Deres et al., 2003: Stray and Zlotnick, 2006), or interact with a core assembly intermediate and promote the formation of empty capsids (AT-61) (Feld et al., 2007; Katen et al., King et al., 1998). The amounts of intracellular viral mRNA, encapsidated pgRNA, capsids and nucleocapsid-associated HBV DNA were analyzed with the methods detailed below.
Procedures of viral capsids and nucleocapsid-associated DNA analysis: HepDES19 cells were lysed by addition of 300 μl buffer containing 10 mM Tris-HCl (pH7.6), 100 mM NaCl, 1 mM EDTA and 0.1% NP-40 to each well of 12-well plate. […] HBV capsids were detected by probing the membrane with an antibody against HBV core protein (DAKO). […] The viral DNA was detected by hybridization with a α-^32P-UTP (800 Ci/mmol, Perkin Elmer) labeled minus strand specific full-length HBV riboprobe (Xu et al.).

[1] = system: capsid-associated HBV DNA; experiment: Nucleocapsid-associated HBV DNA and DNA replication intermediates (particle gel hybridization, Southern blot); settings: AML12HBV10 cells, 2 days, FIG. 3 panels D and E; Bay41-4109 5 μM, AT-61 25 μM
Protocol: as §1
Procedures of viral capsids and nucleocapsid-associated DNA analysis: HepDES19 cells were lysed by addition of 300 μl buffer containing 10 mM Tris-HCl (pH7.6), 100 mM NaCl, 1 mM EDTA and 0.1% NP-40 to each well of 12-well plate. […] HBV capsids were detected by probing the membrane with an antibody against HBV core protein (DAKO). […] The viral DNA was detected by hybridization with a α-^32P-UTP (800 Ci/mmol, Perkin Elmer) labeled minus strand specific full-length HBV riboprobe (Xu et al.). […]

encapsidated pgRNA = experiment: Encapsidated pgRNA by Northern blot in AML12HBV10 cells; settings: 2 days, FIG. 3 panel C, Bay41-4109 5 μM, AT-61 25 μM
Protocol: as §1
Determination of encapsidated pgRNA: AML12HBV10 cells were lysed by addition of 600 μl of lysis buffer (50 mM Tris-HCl [pH 7.5], 1 mM EDTA, 150 mM NaCl, 1% NP-40) into each well of 12-well plates. The nuclei were removed by centrifugation at 5,000 g for 10 minutes. One-half of the sample was mixed with 6 U of micrococcal nuclease (Pharmacia) and 15 μl of 100 mM CaCl2 and incubated for 15 minutes at 37° C. to digest free nucleic acids. The reaction was stopped with 6 μl of 0.5 M EDTA, and capsids were precipitated by adding 125 μl of 35% polyethylene glycol 8000 in 1.75 M NaCl to the reaction and incubating in ice for 30 minutes, followed by centrifugation at 6,000 g for 10 minutes at 4° C. Pellets were re-suspended in 50 μl of TNE buffer (10 mM Tris-HCl [pH 8], 100 mM NaCl, 1 mM EDTA), pgRNA was extracted by the addition of 1 ml of Trizol reagent. The encapsidated pgRNA were electrophoresed through a 2.2 M formaldehyde-1% agarose gel, transferred to a nylon membrane, and immobilized by UV cross-linking (Stratagene). Hybridization was performed with an alpha-^32P-UTP labeled riboprobe specific for plus strand of HBV genome.

COC(=O)C1=C(C)NC(c2ncc(F)cc2F)=N[C@H]1c1ccc(F)cc1Cl [Bay41-4109]
completely abolished: capsid formation (HBV capsids) | capsid-associated HBV DNA / DNA synthesis [1] | level of encapsidated pgRNA (encapsidated pgRNA)
